Measured values as given in article PMC9230201, “Sustained Consumption of a Decaffeinated Green Coffee Nutraceutical Has Limited Effects on Phenolic Metabolism and Bioavailability in Overweight/Obese Subjects” (Nutrients, 2022).
Values joined by “and” are separate entries in the source; they are usually repeats but may differ in a detail not shown here. Equal entries are not always repeated.

Columns and labels:
[1] = Plasma pharmacokinetics of phenolic metabolites after intake of the GCPE nutraceutical (LC-MS-QToF); conditions: for Cmax: mean ± SEM, n = 9
Experimental: Participants attended the Human Nutrition Unit (HNU) at the Institute of Food Science, Technology and Nutrition (ICTAN-CSIC) on two consecutive days at the beginning of the intervention (week 0) and also on two consecutive days at the end of the study, after consuming daily two doses of the GCPE nutraceutical, providing 600 mg/d phenols, during two months (week 8). On each occasion, on the first visit day (Figure 1), subjects arrived at the HNU after an overnight (12 h) fast and provided a urine sample. A licensed health care professional placed an intravenous catheter in the subjects′ nondominant arm and collected a fasting blood sample (baseline, 0 h). Then, subjects drank the soluble GCPE nutraceutical dissolved in 200 mL of water. Subsequently, blood samples were collected in EDTA-coated tubes at 0.5, 1, 1.5, 2, 3, 4, 6, 8, 10, and 11 h. On the sampling days, volunteers remained at the HNU, where a (poly)phenol-free diet was provided. Half an hour after consuming the nutraceutical, volunteers ate a breakfast consisting of ham, cheese, white bread, and a yogurt. Lunch (paella, bread, and yogurt) and an afternoon snack (muffin and yogurt) were eaten 5 and 9 h, respectively, after consuming the nutraceutical. Water and isotonic beverages were freely available. Volunteers were instructed to eat a (poly)phenol-free dinner that night and to attend the HNU on the next day after a 12 h fast. Then, a final blood sample was obtained from the antecubital vein 24 h after consuming the nutraceutical. The same protocol was followed during visits at the end of the 8-week intervention. On each occasion, two days before each visit to the HNU, subjects consumed a low (poly)phenol diet free of foods containing hydroxycinnamates such as coffee, herbal teas, red wine, artichokes, whole grain cereals, vegetables, fruits and fruit juices, and dried fruits. Only banana, watermelon, cantaloupes, and potatoes were allowed.
Blood samples were immediately centrifuged (10 min, 3000 rpm, 4 °C) to obtain plasma. […] All biological samples were stored at −80 °C until analysis.
To extract plasma metabolites, 10 µL of 50% (v/v) aqueous formic acid, and 900 µL cold acetonitrile containing 50 µL of 10% (w/v) ascorbic acid were added to 400 µL defrosted plasma. Samples were vortexed and centrifuged (14,000 rpm, 10 min, 4 °C), repeating the extraction and combining the two supernatants, which were reduced to dryness under nitrogen [13]. Dried samples were resuspended in 150 µL of 0.1% aqueous formic acid (containing 10% acetonitrile acidified with 0.1% formic acid), centrifuged (15 min, 14,000 rpm, 4 °C), and the supernatant collected.
A reverse-phase Ascentis Express C18 (15 cm × 3 mm, 2.7 µm) column (Sigma-Aldrich Quimica, Madrid, Spain), preceded by a Supelco 55215-U guard column (3 mm × 5 mm, 2.7 µm), was used for separation. Mobile phase A was 0.1% formic acid in Milli-Q water, and mobile phase B was acetonitrile containing 0.1% formic acid at a 0.3 mL/min flow rate. […] Metabolites were identified based on their retention time using authentic standards when possible.

[2] = Urinary excretion of phenolic metabolites after intake of the GCPE nutraceutical; conditions: for Cumulative urinary excretion, Total 0–24 h / Urinary excretion: urine; for Cumulative urinary excretion, Total 0–24 h: mean ± SEM, n = 9
[3] = week 0, GCPE nutraceutical with 300 mg hydroxycinnamic acids
[4] = week 0, first peak where biphasic
[5] = week 8, GCPE nutraceutical with 300 mg hydroxycinnamic acids
[6] = week 8, first peak where biphasic

Amount excreted in urine, 11-24 h ([2]; week 0, interval 11–24 h)	Amount excreted in urine, 0- 3 h ([2]; week 8, interval 0–3 h)	Amount excreted in urine, 11-24 h ([2]; week 8, interval 11–24 h)	Compound	AUC0–24h ([1]; week 0) [µM/min]	Cmax [1, 3] [nM]	Tmax (h) or Range [1, 4] [h]	AUC0–24h ([1]; week 8) [µM/min]	Cmax [1, 5] [nM]	Tmax (h) or Range [1, 6] [h]	Cumulative urinary excretion, Total 0–24 h ([2]; week 0) [µmol]	Cumulative urinary excretion, Total 0–24 h ([2]; week 8) [µmol]	Amount excreted in urine, 0- 3 h ([2]; week 0, interval 0–3 h) [µmol]	Amount excreted in urine, 3-6 h ([2]; week 0, interval 3–6 h) [µmol]	Amount excreted in urine, 6-9 h ([2]; week 0, interval 6–9 h) [µmol]	Amount excreted in urine, 9-11 h ([2]; week 0, interval 9–11 h) [µmol]	Amount excreted in urine, 3-6 h ([2]; week 8, interval 3–6 h)	Amount excreted in urine, 6-9 h ([2]; week 8, interval 6–9 h) [µmol]	Amount excreted in urine, 9-11 h ([2]; week 8, interval 9–11 h) [µmol]	Urinary excretion ([2]; week 0) [µmol/24 h]	Urinary excretion ([2]; week 8) [µmol/24 h]	also measured
11 ± 2 µmol	4 ± 1 µmol	9 ± 2 µmol	O=C(O)CNC(=O)c1cccc(O)c1 [3′-Hydroxyhippuric acid]	10 ± 3	1100 ± 300	10.0 ± 0.4	13 ± 3	1300 ± 200	9.2 ± 0.5	32 ± 5	46 ± 8	3 ± 2	1.1 ± 0.2	4 ± 1	5 ± 1	2.6 ± 0.7 µmol	6 ± 2	5 ± 1	–	–	Cumulative urinary excretion, Total 0–24 h ([2]; week 0, listed as 3′-hydroxyhippuric acid): 32 µmol; Cumulative urinary excretion, Total 0–24 h ([2]; week 8, listed as 3′-hydroxyhippuric acid): 46 µmol; Amount excreted in urine, TOTAL ([2]; week 0, Table S5 total): 32 ± 5 µmol; Amount excreted in urine, 0 h ([2]; week 8, 0 h (before intake on sampling day)): 18 ± 5 µmol; Amount excreted in urine, TOTAL ([2]; week 8, Table S6 total): 46 ± 8 µmol
3.8 ± 0.9 µmol	1.5 ± 0.3 µmol	2.8 ± 0.6 µmol	O=C(O)CNC(=O)c1ccc(O)cc1 [4′-Hydroxyhippuric acid]	1.2 ± 0.2	80 ± 10	12 ± 3	1.3 ± 0.2	90 ± 10	8 ± 2	14 ± 2	14 ± 2	1.3 ± 0.3	0.7 ± 0.1	1 ± 0.3	0.8 ± 0.2	0.6 ± 0.1 µmol	1.2 ± 0.2	1.1 ± 0.3	–	–	Amount excreted in urine, TOTAL ([2]; week 0, Table S5 total): 14 ± 2 µmol; Amount excreted in urine, TOTAL ([2]; week 8, Table S6 total): 14 ± 2 µmol
–	–	–	O=C(O)Cc1ccc(O)cc1 [4′-Hydroxyphenylacetic acid]	2 ± 1	2000 ± 1000	2 ± 2	36 ± 23	7000 ± 3000	0.6 ± 0.1	–	–	–	–	–	–	–	–	–	–	–	–
–	–	–	O=C(O)C=Cc1ccc(OC2OC(C(=O)O)C(O)C(O)C2O)cc1 (stereo not drawn) [CoA-4′-glucuronide, Cinnamic acid-4′-glucuronide]	0.72 ± 0.08	39 ± 2	1.4 ± 0.3	0.71 ± 0.07	38 ± 2	2.1 ± 0.2	–	–	–	–	–	–	–	–	–	–	–	Tmax, second peak ([1]; week 0, biphasic profile): 7.0 ± 0.9 h; Tmax, second peak ([1]; week 8, biphasic profile): 9 ± 2 h
–	–	–	O=C(O)/C=C/c1ccc(OS(=O)(=O)O)cc1 [CoA-4′-sulfate, Cinnamic acid-4′-sulfate]	0.2 ± 0.2	20 ± 20	1.7 ± 0.9	0.4 ± 0.2	30 ± 10	–	–	–	–	–	–	–	–	–	–	–	–	Tmax, second peak ([1]; week 0, biphasic profile): 6 ± 3 h; Tmax, second peak ([1]; week 8, biphasic profile): 11 ± 3 h
0.06 ± 0.02 µmol	0.009 ± 0.003 µmol	0.06 ± 0.02 µmol	Coumaroylquinic acid	–	–	–	–	–	–	0.14 ± 0.03	0.10 ± 0.02	0.03 ± 0.01	0.015 ± 0.003	0.017 ± 0.006	0.015 ± 0.004	–	0.014 ± 0.002	0.012 ± 0.004	–	–	Cumulative urinary excretion, Total 0–24 h ([2]; week 0, listed as coumaroylquinic acid): 0.14 µmol; Cumulative urinary excretion, Total 0–24 h ([2]; week 8, listed as coumaroylquinic acid): 0.10 µmol
0.12 µmol and 0.14 µmol	0.03 µmol and 0.017 µmol	0.09 µmol and 0.12 µmol	Dihydrocoumaroylquinic acid	–	–	–	–	–	–	–	–	–	–	–	–	0.009 µmol and 0.01 µmol	–	–	0.22	0.17	–

Compound	Amount excreted in urine, 11-24 h ([2]; week 0, interval 11–24 h)	Amount excreted in urine, 0- 3 h ([2]; week 8, interval 0–3 h)	Amount excreted in urine, 11-24 h ([2]; week 8, interval 11–24 h)	AUC0–24h ([1]; week 0) [µM/min]	Cmax [1, 3] [nM]	Tmax (h) or Range [1, 4] [h]	AUC0–24h ([1]; week 8) [µM/min]	Cmax [1, 5] [nM]	Tmax (h) or Range [1, 6] [h]	Cumulative urinary excretion, Total 0–24 h ([2]; week 0) [µmol]	Cumulative urinary excretion, Total 0–24 h ([2]; week 8) [µmol]	Amount excreted in urine, 0- 3 h ([2]; week 0, interval 0–3 h) [µmol]	Amount excreted in urine, 3-6 h ([2]; week 0, interval 3–6 h) [µmol]	Amount excreted in urine, 6-9 h ([2]; week 0, interval 6–9 h) [µmol]	Amount excreted in urine, 9-11 h ([2]; week 0, interval 9–11 h) [µmol]	Amount excreted in urine, 3-6 h ([2]; week 8, interval 3–6 h)	Amount excreted in urine, 6-9 h ([2]; week 8, interval 6–9 h) [µmol]	Amount excreted in urine, 9-11 h ([2]; week 8, interval 9–11 h) [µmol]	Urinary excretion ([2]; week 0) [µmol/24 h]	Urinary excretion ([2]; week 8) [µmol/24 h]	also measured
O=C(O)CCc1ccc(OS(=O)(=O)O)c(O)c1 [DHCA-4′-sulfate, 3-(3′-Hydroxyphenyl)propanoic acid-4′-sulfate]	2.6 ± 0.8 µmol	0.6 ± 0.2 µmol	1.7 ± 0.5 µmol	2.3 ± 0.5	340 ± 90	7.9 ± 0.5	2.1 ± 0.4	330 ± 70	8.4 ± 0.6	8 ± 2	10 ± 2	0.4 ± 0.1	0.2 ± 0.04	0.5 ± 0.2	0.5 ± 0.2	0.2 ± 0.04 µmol	0.5 ± 0.1	0.6 ± 0.2	8	10	–
COc1cc(CCC(=O)O)ccc1O[C@@H]1O[C@H](C(=O)O)[C@@H](O)[C@H](O)[C@H]1O [DHFA-4′-glucuronide, 3-(3′-Methoxyphenyl)propanoic acid-4′-glucuronide]	1.2 ± 0.2 µmol	0.21 ± 0.06 µmol	1 ± 0.3 µmol	1.1 ± 0.3	130 ± 30	8.7 ± 0.6	0.8 ± 0.1	120 ± 20	8.7 ± 0.6	5 ± 1	7 ± 1	0.15 ± 0.05	0.16 ± 0.05	1 ± 0.4	0.8 ± 0.1	0.34 ± 0.09 µmol	1 ± 0.2	0.8 ± 0.2	5	7	–
COc1cc(CCC(=O)O)ccc1OS(=O)(=O)O [DHFA-4′-sulfate, 3-(3′-Methoxyphenyl)propanoic acid-4′-sulfate]	3.5 ± 0.8 µmol	0.6 ± 0.1 µmol	2.6 ± 0.8 µmol	1.5 ± 0.7	190 ± 80	8.1 ± 0.4	1.1 ± 0.3	170 ± 50	8.4 ± 0.6	10 ± 2	9 ± 2	0.5 ± 0.1	0.5 ± 0.1	3.4 ± 1.2	2.1 ± 0.5	0.8 ± 0.2 µmol	2 ± 1	3 ± 1	–	–	–
